Laboratory results as given in US11026944B2, “Compositions and methods for treating insomnia” (Eisai R&D Management Co., Ltd., priority 2014, dated 2021).

Test system: subjects with insomnia
Experiment: 201 Study: Karolinska Sleepiness Scale (next-day residual sleepiness)
Assay type: in vivo, human
Experimental: All subjects returned to the clinic on Day-1 for Baseline Period procedures. They remained in the clinic until Day 3. Morning assessments on Day 1 provided the Baseline values for the KSS, the Digit Symbol Substitution Test (DSST), and the Reaction Time Index (RTI). Assessments at 6 hours after waketime provided the Baseline values for the Waking Function Battery (WFB), and the Profile of Mood States-Brief (POMS-B). Subjects were then randomized to receive 1 of 6 doses of compound A or placebo for the next 15 days. Study drugs were tablets containing compound A-matched placebo or compound A of 1 mg, 2.5 mg, 5 mg, or 10 mg and to be ingested 30 minutes before the median habitual bedtime calculated from their Sleep Diary responses during the Screening Period. An 8-hour PSG, starting at the same bedtime as used for the screening and Baseline PSG nights, was recorded on the first 2 treatment nights (Days 1 and 2). The Sleep Diary continued to be completed each day in the clinic, and assessments of insomnia severity (ISI), next-day residual effects (KSS, DSST, and RTI) were conducted while subjects were in the clinic. On specified study days, plasma concentrations of compound A were assessed while subjects were in the clinic in the morning after awakening and at trough just before dosing.
The KSS was used to measure next-day residual effects at prespecified timepoints. In this test, subjects rate their sleepiness using the KSS, a 9-point verbally anchored scale. Categories and scores range from“extremely alert” (score=1), “alert” (3), “neither alert nor sleepy” (5), “sleepy-but no difficulty remaining awake” (7), to “extremely sleepy-fighting sleep” (9). The key outcome parameter for the KSS was the score from 1 to 9.
Each dose was assessed for next-day residual sleepiness using the KSS. A mean difference of change from baseline in KSS at 1 hour after waketime on Day 2 and Day 3 of less than 4 units was incorporated into the utility function. A dose of compound A was considered to have an acceptable KSS at Day 15 and Day 16 if the mean difference of change from baseline in KSS at 1 hour after waketime on Day 15 and Day 16 at this dose relative to placebo was less than 4 units. Operationally, acceptable KSS for Day 15 and Day 16 was defined as the […] boundary of a 90% confidence interval (CI) being less than 4 units (of the mean difference of change from baseline in KSS at 1 hour after waketime at this dose relative to placebo).
In Table 6, “Baseline” was defined as the time-matched value on Day 1. “LS Means Diff” refers to the differences between LS Means of Placebo and each compound A dose, “95% CI” means to 95% CI of LS Means Diff. “p-value” was analyzed using analysis of covariance (ANCOVA) with baseline as a covanate.

[1] = 1 hour post waketime, 1 mg nightly
[2] = 1 hour post waketime, 2.5 mg nightly
[3] = 1 hour post waketime, 5 mg nightly
[4] = 1 hour post waketime, 10 mg nightly
[5] = 1 hour post waketime, 15 mg nightly
[6] = 1 hour post waketime, 25 mg nightly

Structure (SMILES): Cc1ncc(OC[C@@]2(c3cccc(F)c3)C[C@H]2C(=O)Nc2ccc(F)cn2)c(C)n1 [Compound A, (1R,2 S)-2-(((2,4-dimethylpyrimidin-5-yl)oxy)methyl)-2-(3-fluorophenyl)-N-(5-fluoropyridin-2-yl) cyclopropanecarboxamide]
- KSS vs placebo, significance (15 min post waketime timepoints): No statistically significant differences
- Change from Baseline in KSS, Mean of Days 2 & 3: LS Means Diff vs placebo [1]: 0.02
- Change from Baseline in KSS, Mean of Days 2 & 3: Mean [1]: −0.2
- Change from Baseline in KSS, Mean of Days 15 & 16: LS Means Diff vs placebo [1]: 0.51
- Change from Baseline in KSS, Mean of Days 15 & 16: Mean [1]: 0.3
- Change from Baseline in KSS, Mean of Days 2 & 3: LS Means Diff vs placebo [2]: −0.06
- Change from Baseline in KSS, Mean of Days 2 & 3: Mean [2]: −0.3
- Change from Baseline in KSS, Mean of Days 15 & 16: LS Means Diff vs placebo [2]: 0.13
- Change from Baseline in KSS, Mean of Days 15 & 16: Mean [2]: −0.1
- Change from Baseline in KSS, Mean of Days 2 & 3: LS Means Diff vs placebo [3]: 0.20
- Change from Baseline in KSS, Mean of Days 2 & 3: Mean [3]: −0.1
- Change from Baseline in KSS, Mean of Days 15 & 16: LS Means Diff vs placebo [3]: 0.43
- Change from Baseline in KSS, Mean of Days 15 & 16: Mean [3]: 0.1
- Change from Baseline in KSS, Mean of Days 2 & 3: LS Means Diff vs placebo [4]: 0.16
- Change from Baseline in KSS, Mean of Days 2 & 3: Mean [4]: 0.0
- Change from Baseline in KSS, Mean of Days 15 & 16: LS Means Diff vs placebo [4]: 0.01
- Change from Baseline in KSS, Mean of Days 15 & 16: Mean [4]: −0.1
- Change from Baseline in KSS, Mean of Days 2 & 3: LS Means Diff vs placebo [5]: 0.32
- Change from Baseline in KSS, Mean of Days 2 & 3: Mean [5]: 0.1
- Change from Baseline in KSS, Mean of Days 15 & 16: LS Means Diff vs placebo [5]: 0.38
- Change from Baseline in KSS, Mean of Days 15 & 16: Mean [5]: 0.1
- Change from Baseline in KSS, Mean of Days 2 & 3: LS Means Diff vs placebo [6]: 0.47
- Change from Baseline in KSS, Mean of Days 2 & 3: Mean [6]: 0.4
- Change from Baseline in KSS, Mean of Days 15 & 16: LS Means Diff vs placebo [6]: 0.68
- Change from Baseline in KSS, Mean of Days 15 & 16: Mean [6]: 0.6
- KSS LS mean differences vs placebo, significance (1 hour post waketime, Mean of Days 2/3, 1 mg to 15 mg): not statistically significant
- KSS vs placebo, significance (2 hour post waketime, mean of Days 2/3, 15 mg and 25 mg): statistical significance
- KSS vs placebo, significance (2 hour post waketime, mean of Days 15/16, 25 mg): statistically significant
